Assay results taken from patent US6197774A, “Pyrimidine derivative” (Otsuka Pharmaceutical Co., Ltd., priority 1997, dated 2001).

Assay: Toxicity of compound against the cell strain RAW 264.7 (MTT)
Type: cell-based
Details: mouse, raw 264.7 cells, 1 × 10^-6 M, read-out: Ratio of optical absorbance
Description: [Toxicity test (Toxicity of compound against the cell strain RAW 264.7)]
Test was conducted in accordance with the method as described in J. Immunol. Methods, Vol. 94, pp. 57-68, (1986). Cell strain RAW 264.7 derived from the macrophage of mouse was incubated similarly as in the method of Test Example 1(1). After that, MTT reagent (5 mg/ml) in 1/10 amount of the culture medium was added to the cells, and incubated for 4 hours. The supernatant of culture medium was taken off, then the cells were collected by using 1% SDS solution and the optical absorbance at 570-630 nm of the SDS solution was measured.

## COCc1cc(=O)n2ncc(-c3ccc(Sc4ccccc4)cc3)c2[nH]1 [Example 1, 4,7-dihydro-5-methoxymethyl-7-oxo-3-(4-phenylthiophenyl)pyrazolo[1,5-a]pyrimidine]
  viability at 1 µM: 109%
